Tested on: 435261-313-R-J1-PDC complex spheroid viability
Assay: Anticancer human tumor 435261-313-R-J1-PDC patient-derived colon adenocarcinoma cell line growth inhibition [GQUAD]
Settings: for IC50: curve of first compound; for viability, T/C: stronger effect = lower value
Description: DNA G-quadruplex Stabilizer Agents in Combinations in Complex Spheroids
A high-throughput screen of multi-cell type tumor spheroids was designed to identify active combinations of DNA G-quadruplex stabilizer agents and targeted small molecules. Complex spheroids include a stromal component modeled by human endothelial cells (HUVEC) and fibroblasts modeled by human mesenchymal stem cells (MSCs). The concentration ranges selected for each drug and investigational agent were based upon clinically achievable concentrations if the clinical Cmax of the agent was known.
Compounds. The drugs and investigational agents: pidnarulex (CX-5461; NSC782164), APTO-253 (NSC789042), BRACO-19 (NSC847499), peposertib (NSC802822), ceralasertib (NSC780249), elimusertib (NSC800525), camonsertib (NSC841442), AZD-1390 (NSC803789), olaparib (NSC753686), talazoparib (NSC767125), ART-558 (NSC835418), sotorasib (NSC818433), MRTX-1133 (NSC836407), SN-38 (NSC673596), topotecan (NSC609699), etoposide (NSC141540), doxorubicin (NSC123127), gemcitabine (NSC613327), 5-fluorouracil (NSC19893), paclitaxel (NSC125973), vemurafenib (NSC761431), panobinostat (NSC761190), R-306465 (JNJ-16241199; NSC773264), adavosertib (NSC754352), TP-3654 (NSC805149), carboplatin (NSC241240), KSQ-4279 (NSC840948), and staurosporine (NSC755774) were obtained from the National Cancer Institute (NCI) Developmental Therapeutics Program Chemical Repository (34). The FDA-approved anticancer drug set is available from the NCI Developmental Therapeutics Program. […] The stock solutions were prepared in dimethyl sulfoxide (DMSO, Sigma-Aldrich, St. Louis, MO, cat. D2650) at 800-fold the tested concentration and stored at -70 degrees C prior to their use. All drugs and investigational agents were tested over a range starting from a high concentration at or near the clinical Cmax and decreasing in half-log increments. If the clinical Cmax for an agent had not been determined, the highest concentration tested was 10 microM.
2.3 Cell Culture. All cells were maintained in an incubator at 37 degrees C and 5% CO2 with 95% humidity. The PDC lines were cultured according to standard operating procedures established by the NCI PDMR. All PDCs were thawed and cultured in Matrigel-coated flasks prepared with a working solution of 1X Ham's F-12 nutrient mix, without supplementation (Invitrogen, cat. 11765054), 100 U/mL penicillin-streptomycin (Invitrogen, cat. 15140122), and 2.5% Matrigel (Corning Inc., cat. 354248) for the first three passages. The 857933-349-R-J2-PDC line was cultured in 6C/Colon 1B media, which includes advanced DMEM/F-12 (Thermo Fisher Scientific, cat. 12634028), 10 mM HEPES (Thermo Fisher Scientific, cat. 15630080), 1X GlutaMAX supplement (Thermo Fisher Scientific, cat. 35050061), 0.1 mg/mL primocin (InvivoGen, cat. ant-pm-2), 10% defined fetal bovine serum, heat inactivated (HyClone Laboratories Inc., cat. SH30070.03HI), 50% L-WRN conditioned media (ATCC, cat. CRL-3276), 1.25 mM N-Acetyl-L-cysteine (Sigma-Aldrich, cat. A9165), 10 mM nicotinamide (Sigma-Aldrich, cat. N0636), 1X B-27 supplement (Thermo Fisher Scientific, cat. 17504044), 1X N-2 supplement (Thermo Fisher Scientific, cat. 17502048), 10 microM Y-27632 dihydrochloride (Tocris Bioscience, cat. 1254), and 50 ng/mL human EGF recombinant protein (Thermo Fisher Scientific, cat. PHG0311). The 485176-168-R4-J1-PDC line was cultured in Panc media, which includes all 6C/Colon 1B media components plus 100 ng/mL human FGF-10 (Thermo Fisher Scientific, cat. 100-26), 500 nM SB-431542 (Selleckchem, cat. S1067), and gastrin (Tocris, cat. 3006).
[…]

[1] = second compound 0.0316 µM, first compound 0.0316 µM
[2] = second compound 0.0316 µM, first compound 0.316 µM
[3] = second compound 0.1 µM, first compound 0.0316 µM
[4] = second compound 0.1 µM, first compound 0.316 µM
[5] = second compound 0.316 µM, first compound 0.0316 µM
[6] = second compound 0.316 µM, first compound 0.316 µM
[7] = second compound 1 µM, first compound 0.0316 µM
[8] = second compound 1 µM, first compound 0.316 µM
[9] = second compound 3.16 µM, first compound 0.0316 µM
[10] = second compound 3.16 µM, first compound 0.316 µM
[11] = second compound 10 µM, first compound 0.0316 µM
[12] = second compound 10 µM, first compound 0.316 µM
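Further: spheroids exposed to the agents for seven days before readout.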
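Wherever viability, T/C is given: percent of vehicle control viability with DMSO wells as 100%.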

`CC1COCCN1c1cc(C2(S(C)(=N)=O)CC2)nc(-c2ccnc3[nH]ccc23)n1` (centres undefined) + Cc1[nH]c2ccc(F)cc2c1-c1nc2c3cccnc3c3ncccc3c2[nH]1 was tested, and the IC50 (second compound 0.0316 µM) was over 10000 nM, the IC50 (second compound 0.1 µM) was over 10000 nM and the IC50 (second compound 0.316 µM) was 3270 nM. The IC50 (second compound 1 µM) was 1280 nM, the IC50 (second compound 3.16 µM) was under 31.6 nM and the IC50 (second compound 10 µM) was under 31.6 nM. For the same molecule, the viability, T/C [1] was 111%, the viability, T/C (second compound 0.0316 µM, first compound 0.1 µM) was 85.9% and the viability, T/C [2] was 107%. It also gave a viability, T/C (second compound 0.0316 µM, first compound 1 µM) of 60.5%, a viability, T/C (second compound 0.0316 µM, first compound 3.16 µM) of 66% and a viability, T/C (second compound 0.0316 µM, first compound 10 µM) of 52.2%. It also gave a viability, T/C [3] of 93%, a viability, T/C (second compound 0.1 µM, first compound 0.1 µM) of 106% and a viability, T/C [4] of 90.5%. It also gave a viability, T/C (second compound 0.1 µM, first compound 1 µM) of 83.7%, a viability, T/C (second compound 0.1 µM, first compound 3.16 µM) of 80.2% and a viability, T/C (second compound 0.1 µM, first compound 10 µM) of 55.4%. For the same molecule, the viability, T/C [5] was 94.2%, the viability, T/C (second compound 0.316 µM, first compound 0.1 µM) was 127% and the viability, T/C [6] was 74.8%. It also gave a viability, T/C (second compound 0.316 µM, first compound 1 µM) of 106%, a viability, T/C (second compound 0.316 µM, first compound 3.16 µM) of 50.1% and a viability, T/C (second compound 0.316 µM, first compound 10 µM) of 47.9%. The viability, T/C [7] was 54.4%, the viability, T/C (second compound 1 µM, first compound 0.1 µM) was 65.6% and the viability, T/C [8] was 68%. It also gave a viability, T/C (second compound 1 µM, first compound 1 µM) of 52.6%, a viability, T/C (second compound 1 µM, first compound 3.16 µM) of 36.4% and a viability, T/C (second compound 1 µM, first compound 10 µM) of 30%. The viability, T/C [9] was 29.6%, the viability, T/C (second compound 3.16 µM, first compound 0.1 µM) was 37.1% and the viability, T/C [10] was 30.3%. The viability, T/C (second compound 3.16 µM, first compound 1 µM) was 28.9%, the viability, T/C (second compound 3.16 µM, first compound 3.16 µM) was 21.6% and the viability, T/C (second compound 3.16 µM, first compound 10 µM) was 12.2%. The viability, T/C [11] was 30.7%, the viability, T/C (second compound 10 µM, first compound 0.1 µM) was 22.6% and the viability, T/C [12] was 28.1%. The viability, T/C (second compound 10 µM, first compound 1 µM) was 18.4%, the viability, T/C (second compound 10 µM, first compound 3.16 µM) was 14.9% and the viability, T/C (second compound 10 µM, first compound 10 µM) was 8.85%.
`CC[C@@]1(O)C(=O)OCc2c1cc1n(c2=O)Cc2cc3c(CN(C)C)c(O)ccc3nc2-1` + Cc1[nH]c2ccc(F)cc2c1-c1nc2c3cccnc3c3ncccc3c2[nH]1 gave an IC50 (second compound 0.0316 µM) of over 316 nM, an IC50 (second compound 0.1 µM) of over 316 nM and an IC50 (second compound 0.316 µM) of over 316 nM. It also gave an IC50 (second compound 1 µM) of over 316 nM, an IC50 (second compound 3.16 µM) of under 0.999 nM and an IC50 (second compound 10 µM) of under 0.999 nM. It also gave a viability, T/C (second compound 0.0316 µM, first compound 0.000999 µM) of 90.1%, a viability, T/C (second compound 0.0316 µM, first compound 0.00316 µM) of 76.8% and a viability, T/C (second compound 0.0316 µM, first compound 0.00999 µM) of 84.8%. The viability, T/C [1] was 74.6%, the viability, T/C (second compound 0.0316 µM, first compound 0.0999 µM) was 72.9% and the viability, T/C [2] was 69%. The viability, T/C (second compound 0.1 µM, first compound 0.000999 µM) was 106%, the viability, T/C (second compound 0.1 µM, first compound 0.00316 µM) was 74.9% and the viability, T/C (second compound 0.1 µM, first compound 0.00999 µM) was 108%. The viability, T/C [3] was 73.6%, the viability, T/C (second compound 0.1 µM, first compound 0.0999 µM) was 72.8% and the viability, T/C [4] was 59.8%. For the same molecule, the viability, T/C (second compound 0.316 µM, first compound 0.000999 µM) was 89.3%, the viability, T/C (second compound 0.316 µM, first compound 0.00316 µM) was 80% and the viability, T/C (second compound 0.316 µM, first compound 0.00999 µM) was 114%. The viability, T/C [5] was 59.3%, the viability, T/C (second compound 0.316 µM, first compound 0.0999 µM) was 58.7% and the viability, T/C [6] was 52.6%. It also gave a viability, T/C (second compound 1 µM, first compound 0.000999 µM) of 41.9%, a viability, T/C (second compound 1 µM, first compound 0.00316 µM) of 67.6% and a viability, T/C (second compound 1 µM, first compound 0.00999 µM) of 67.9%. For the same molecule, the viability, T/C [7] was 64.5%, the viability, T/C (second compound 1 µM, first compound 0.0999 µM) was 54.2% and the viability, T/C [8] was 47.1%. It also gave a viability, T/C (second compound 3.16 µM, first compound 0.000999 µM) of 41.4%, a viability, T/C (second compound 3.16 µM, first compound 0.00316 µM) of 34.2% and a viability, T/C (second compound 3.16 µM, first compound 0.00999 µM) of 37.4%. For the same molecule, the viability, T/C [9] was 28.2%, the viability, T/C (second compound 3.16 µM, first compound 0.0999 µM) was 23.9% and the viability, T/C [10] was 33.8%. For the same molecule, the viability, T/C (second compound 10 µM, first compound 0.000999 µM) was 19.3%, the viability, T/C (second compound 10 µM, first compound 0.00316 µM) was 25.4% and the viability, T/C (second compound 10 µM, first compound 0.00999 µM) was 18.3%. The viability, T/C [11] was 24.9%, the viability, T/C (second compound 10 µM, first compound 0.0999 µM) was 20.7% and the viability, T/C [12] was 17.9%.
